Results: US6358885B1, “Substituted phenylheterocyclic herbicides” (Mississippi State University, priority 1992, dated 2002)

Legend:
Test in all cases: Test B preemergence/postemergence greenhouse plant response rating 0 to 10
blackgrass = assay type: in vivo, Alopecurus myosuroides; conditions: for Plant response rating, Blackgrass: 0 to 10 scale
Text: (§1) Seeds of barley (Hordeum vulgare), barnyardgrass (Echinochloa crus-galli), bedstraw (Galium aparine), blackgrass (Alopecurus myosuroides), […] (Bromus secalinus), chickweed (Stellaria media), cocklebur (Xanthium pensylvanicum), corn (Zea mays), cotton (Gossypium hirsutum), crabgrass (Digitaria spp.), giant foxtail (Setaria faberii), lambsquarters (Chenopodium album), morningglory (Ipomoea hederacea), rape (Brassica napus), rice (Oryza sativa), sorghum (Sorghum bicolor), soybean (Glycine max), sugar beet (Beta vulgaris), velvetleaf (Abutilon theophrasti), wheat (Triticum aestivum), wild buckwheat (Polygonum convolvulus), and wild oat (Avena fatua) and purple nutsedge. (Cyperus rotundus) tubers were planted and treated preemergence with test chemicals dissolved in a non-phytotoxic solvent. At the same time, these crop and weed species were also treated with postemergence applications of test chemicals. Plants ranged in height from two to eighteen cm (one to four leaf stage) for postemergence treatments. Treated plants and controls were maintained in a greenhouse for twelve to sixteen days, after which all species were compared to controls and visually evaluated. […] A dash (-) response means no test result.

crabgrass = assay type: in vivo, Digitaria spp.; conditions: for Plant response rating, Crabgrass: 0 to 10 scale
Text: as §1

barnyardgrass = assay type: in vivo, Echinochloa crus-galli; conditions: for Plant response rating, Barnyardgrass: 0 to 10 scale
Text: as §1

bedstraw = assay type: in vivo, Galium aparine; conditions: for Plant response rating, Bedstraw: 0 to 10 scale
Text: as §1

rice = assay type: in vivo, Oryza sativa; conditions: for Plant response rating, Rice: 0 to 10 scale
Text: as §1

sorghum = assay type: in vivo, Sorghum bicolor; conditions: for Plant response rating, Sorghum: 0 to 10 scale
Text: as §1

rape = assay type: in vivo, Brassica napus; conditions: for Plant response rating, Rape: 0 to 10 scale
Text: as §1

morningglory = assay type: in vivo, Ipomoea hederacea; conditions: for Plant response rating, Morningglory: 0 to 10 scale
Text: as §1

chickweed = assay type: in vivo, Stellaria media; conditions: for Plant response rating, Chickweed: 0 to 10 scale
Text: as §1

cheatgrass = assay type: in vivo, Bromus secalinus; conditions: for Plant response rating, Cheatgrass: 0 to 10 scale
Text: as §1

cocklebur = assay type: in vivo, Xanthium pensylvanicum; conditions: for Plant response rating, Cocklebur: 0 to 10 scale
Text: as §1

barley = assay type: in vivo, Hordeum vulgare; conditions: for Plant response rating, Barley: 0 to 10 scale
Text: as §1

giant foxtail = assay type: in vivo, Setaria faberii; conditions: for Plant response rating, Giant foxtail: 0 to 10 scale
Text: as §1

wheat = assay type: in vivo, Triticum aestivum; conditions: for Plant response rating, Wheat: 0 to 10 scale
Text: as §1

sugar beet = assay type: in vivo, Beta vulgaris; conditions: for Plant response rating, Sugar beet: 0 to 10 scale
Text: as §1

wild oat = assay type: in vivo, Avena fatua; conditions: for Plant response rating, Wild oat: 0 to 10 scale
Text: as §1

lambsquarters = assay type: in vivo, Chenopodium album; conditions: for Plant response rating, Lambsquarter: 0 to 10 scale
Text: as §1

purple nutsedge = assay type: in vivo, Cyperus rotundus; conditions: for Plant response rating, Nutsedge: 0 to 10 scale
Text: as §1

cotton = assay type: in vivo, Gossypium hirsutum; conditions: for Plant response rating, Cotton: 0 to 10 scale
Text: as §1

wild buckwheat = assay type: in vivo, Polygonum convolvulus; conditions: for Plant response rating, Wild buckwheat: 0 to 10 scale
Text: as §1

velvetleaf = assay type: in vivo, Abutilon theophrasti; conditions: for Plant response rating, Velvetleaf: 0 to 10 scale
Text: as §1

corn = assay type: in vivo, Zea mays; conditions: for Plant response rating, Corn: 0 to 10 scale
Text: as §1

soybean = assay type: in vivo, Glycine max; conditions: for Plant response rating, Soybean: 0 to 10 scale
Text: as §1

C=CCOc1cc(-c2nn3c(c2Cl)CCCC3)c(Cl)cc1Cl [Compound 71]
8: Plant response rating, Barnyardgrass (barnyardgrass; Rate 200 g/ha, POSTEMERGENCE) | Plant response rating, Bedstraw (bedstraw; POSTEMERGENCE, Rate 50 g/ha) | Plant response rating, Rape (rape; POSTEMERGENCE, Rate 50 g/ha) | Plant response rating, Cocklebur (cocklebur; Rate 200 g/ha, POSTEMERGENCE) | Plant response rating (0 to 10 scale), Giant foxtail (giant foxtail; PREEMERGENCE, Rate 200 g/ha)
3: Plant response rating, Crabgrass (crabgrass; POSTEMERGENCE, Rate 50 g/ha) | Plant response rating, Crabgrass (crabgrass; Rate 200 g/ha, POSTEMERGENCE) | Plant response rating (0 to 10 scale), Rape (rape; PREEMERGENCE, Rate 200 g/ha) | Plant response rating, Chickweed (chickweed; Rate 200 g/ha, POSTEMERGENCE) | Plant response rating, Barley (barley; POSTEMERGENCE, Rate 50 g/ha) | Plant response rating, Wild oat (wild oat; POSTEMERGENCE, Rate 50 g/ha) | Plant response rating, Corn (corn; POSTEMERGENCE, Rate 50 g/ha) | Plant response rating, Corn (corn; Rate 200 g/ha, POSTEMERGENCE)
10: Plant response rating, Rape (rape; Rate 200 g/ha, POSTEMERGENCE) | Plant response rating, Morningglory (morningglory; POSTEMERGENCE, Rate 50 g/ha) | Plant response rating, Morningglory (morningglory; Rate 200 g/ha, POSTEMERGENCE) | Plant response rating, Sugar beet (sugar beet; POSTEMERGENCE, Rate 50 g/ha) | Plant response rating (0 to 10 scale), Sugar beet (sugar beet; PREEMERGENCE, Rate 200 g/ha) | Plant response rating, Sugar beet (sugar beet; Rate 200 g/ha, POSTEMERGENCE) | Plant response rating, Lambsquarter (lambsquarters; POSTEMERGENCE, Rate 50 g/ha) | Plant response rating, Lambsquarter (lambsquarters; PREEMERGENCE, Rate 50 g/ha) | Plant response rating (0 to 10 scale), Lambsquarter (lambsquarters; PREEMERGENCE, Rate 200 g/ha) | Plant response rating, Lambsquarter (lambsquarters; Rate 200 g/ha, POSTEMERGENCE) | Plant response rating, Cotton (cotton; POSTEMERGENCE, Rate 50 g/ha) | Plant response rating, Cotton (cotton; Rate 200 g/ha, POSTEMERGENCE) | Plant response rating, Wild buckwheat (wild buckwheat; POSTEMERGENCE, Rate 50 g/ha) | Plant response rating (0 to 10 scale), Wild buckwheat (wild buckwheat; PREEMERGENCE, Rate 200 g/ha) | Plant response rating, Wild buckwheat (wild buckwheat; Rate 200 g/ha, POSTEMERGENCE) | Plant response rating, Velvetleaf (velvetleaf; POSTEMERGENCE, Rate 50 g/ha) | Plant response rating (0 to 10 scale), Velvetleaf (velvetleaf; PREEMERGENCE, Rate 200 g/ha) | Plant response rating, Velvetleaf (velvetleaf; Rate 200 g/ha, POSTEMERGENCE)
6: Plant response rating, Blackgrass (blackgrass; Rate 200 g/ha, POSTEMERGENCE) | Plant response rating, Barnyardgrass (barnyardgrass; POSTEMERGENCE, Rate 50 g/ha) | Plant response rating (0 to 10 scale), Bedstraw (bedstraw; PREEMERGENCE, Rate 200 g/ha) | Plant response rating, Sorghum (sorghum; POSTEMERGENCE, Rate 50 g/ha) | Plant response rating, Sorghum (sorghum; Rate 200 g/ha, POSTEMERGENCE) | Plant response rating, Cheatgrass (cheatgrass; Rate 200 g/ha, POSTEMERGENCE) | Plant response rating, Giant foxtail (giant foxtail; Rate 200 g/ha, POSTEMERGENCE) | Plant response rating, Wheat (wheat; Rate 200 g/ha, POSTEMERGENCE) | Plant response rating, Soybean (soybean; POSTEMERGENCE, Rate 50 g/ha)
7: Plant response rating, Cocklebur (cocklebur; POSTEMERGENCE, Rate 50 g/ha) | Plant response rating, Soybean (soybean; Rate 200 g/ha, POSTEMERGENCE)
5: Plant response rating (0 to 10 scale), Crabgrass (crabgrass; PREEMERGENCE, Rate 200 g/ha) | Plant response rating (0 to 10 scale), Barnyardgrass (barnyardgrass; PREEMERGENCE, Rate 200 g/ha) | Plant response rating, Rice (rice; Rate 200 g/ha, POSTEMERGENCE) | Plant response rating, Giant foxtail (giant foxtail; POSTEMERGENCE, Rate 50 g/ha) | Plant response rating, Sugar beet (sugar beet; PREEMERGENCE, Rate 50 g/ha) | Plant response rating, Wild oat (wild oat; Rate 200 g/ha, POSTEMERGENCE) | Plant response rating (0 to 10 scale), Nutsedge (purple nutsedge; PREEMERGENCE, Rate 200 g/ha)
0: Plant response rating, Blackgrass (blackgrass; PREEMERGENCE, Rate 50 g/ha) | Plant response rating (0 to 10 scale), Blackgrass (blackgrass; PREEMERGENCE, Rate 200 g/ha) | Plant response rating, Crabgrass (crabgrass; PREEMERGENCE, Rate 50 g/ha) | Plant response rating, Barnyardgrass (barnyardgrass; PREEMERGENCE, Rate 50 g/ha) | Plant response rating, Rice (rice; PREEMERGENCE, Rate 50 g/ha) | Plant response rating (0 to 10 scale), Rice (rice; PREEMERGENCE, Rate 200 g/ha) | Plant response rating, Sorghum (sorghum; PREEMERGENCE, Rate 50 g/ha) | Plant response rating (0 to 10 scale), Sorghum (sorghum; PREEMERGENCE, Rate 200 g/ha) | Plant response rating, Rape (rape; PREEMERGENCE, Rate 50 g/ha) | Plant response rating, Morningglory (morningglory; PREEMERGENCE, Rate 50 g/ha) | Plant response rating (0 to 10 scale), Morningglory (morningglory; PREEMERGENCE, Rate 200 g/ha) | Plant response rating, Chickweed (chickweed; PREEMERGENCE, Rate 50 g/ha) | Plant response rating (0 to 10 scale), Chickweed (chickweed; PREEMERGENCE, Rate 200 g/ha) | Plant response rating, Cheatgrass (cheatgrass; PREEMERGENCE, Rate 50 g/ha) | Plant response rating, Cocklebur (cocklebur; PREEMERGENCE, Rate 50 g/ha) | Plant response rating (0 to 10 scale), Cocklebur (cocklebur; PREEMERGENCE, Rate 200 g/ha) | Plant response rating, Barley (barley; PREEMERGENCE, Rate 50 g/ha) | Plant response rating (0 to 10 scale), Barley (barley; PREEMERGENCE, Rate 200 g/ha) | Plant response rating, Giant foxtail (giant foxtail; PREEMERGENCE, Rate 50 g/ha) | Plant response rating, Wheat (wheat; PREEMERGENCE, Rate 50 g/ha) | Plant response rating, Nutsedge (purple nutsedge; PREEMERGENCE, Rate 50 g/ha) | Plant response rating, Cotton (cotton; PREEMERGENCE, Rate 50 g/ha) | Plant response rating (0 to 10 scale), Cotton (cotton; PREEMERGENCE, Rate 200 g/ha) | Plant response rating, Wild buckwheat (wild buckwheat; PREEMERGENCE, Rate 50 g/ha) | Plant response rating, Velvetleaf (velvetleaf; PREEMERGENCE, Rate 50 g/ha) | Plant response rating, Corn (corn; PREEMERGENCE, Rate 50 g/ha) | Plant response rating, Soybean (soybean; PREEMERGENCE, Rate 50 g/ha) | Plant response rating (0 to 10 scale), Soybean (soybean; PREEMERGENCE, Rate 200 g/ha)
2: Plant response rating, Bedstraw (bedstraw; PREEMERGENCE, Rate 50 g/ha) | Plant response rating, Chickweed (chickweed; POSTEMERGENCE, Rate 50 g/ha) | Plant response rating (0 to 10 scale), Cheatgrass (cheatgrass; PREEMERGENCE, Rate 200 g/ha) | Plant response rating (0 to 10 scale), Wheat (wheat; PREEMERGENCE, Rate 200 g/ha) | Plant response rating, Wild oat (wild oat; PREEMERGENCE, Rate 50 g/ha) | Plant response rating (0 to 10 scale), Wild oat (wild oat; PREEMERGENCE, Rate 200 g/ha) | Plant response rating, Nutsedge (purple nutsedge; POSTEMERGENCE, Rate 50 g/ha) | Plant response rating, Nutsedge (purple nutsedge; Rate 200 g/ha, POSTEMERGENCE) | Plant response rating (0 to 10 scale), Corn (corn; PREEMERGENCE, Rate 200 g/ha)
4: Plant response rating, Blackgrass (blackgrass; POSTEMERGENCE, Rate 50 g/ha) | Plant response rating, Rice (rice; POSTEMERGENCE, Rate 50 g/ha) | Plant response rating, Cheatgrass (cheatgrass; POSTEMERGENCE, Rate 50 g/ha) | Plant response rating, Barley (barley; Rate 200 g/ha, POSTEMERGENCE) | Plant response rating, Wheat (wheat; POSTEMERGENCE, Rate 50 g/ha)
9: Plant response rating, Bedstraw (bedstraw; Rate 200 g/ha, POSTEMERGENCE)
